Earlier results, collected in patent US20160367500A1 (FERTILIFY INC., priority 2013, published 2016).
Where two headings read alike, the source gives them in different places. Values belong to the compound of their own block, whether it stands above or below them.

Experiments:
[1] = test system: ROS-mediated embryo-toxicity in cultures; conditions: vitamin C and vitamin E together, ex-vivo murine models
[2] = test system: anti-Müllerian hormone (AMH); conditions: women with sufficient levels of vitamin D
[3] = not given; remark: listed apart in the source
[4] = test system: female rats
[5] = test system: mouse hepatocyte mitochondria
[6] = test system: aged female mice
[7] = test system: methylglyoxal-treated oocytes
[8] = fortification of food with folic acid
[9] = diet deficient in vitamin D versus vitamin D sufficient diet (Halloran 1980)

Compound: vitamin E
- tolerable upper limit of intake (Health Canada Nutrition Tables (2013)): 1000 mg per day
- IVF [1]: improved IVF
- rate of embryo development [1]: increased the rate of embryo development

Compound: vitamin D
- AMH levels [2]: increased levels of anti-Müllerian hormone (AMH)
- pregnancy rate per IVF cycle ([3]; women whose vitamin D levels were insufficient or deficient): 34.7%
- pregnancy rate per IVF cycle ([3]; women with sufficient levels of vitamin D): 52.5%
- reduction of fertility [4, 9]: 75%
- reduction of litter size [4, 9]: 30%
- litter size ([4]; diet lacking vitamin D before mating versus diet containing vitamin D (Hickie 1983)): significantly smaller litters

- upper limit (in words) (adults over the age of 18): (no known upper limit)
Compound: O=C(O)c1cc(C(=O)O)c2c(n1)C(=O)C(=O)c1cc(C(=O)O)[nH]c1-2 [PQQ, pyrroloquinoline quinone]
- mitochondrial biogenesis ([5]; aging cells): promotes the spontaneous generation of new mitochondria within aging cells
- protection from oxidative stress ([5]; mouse hepatocyte mitochondria): protects mouse hepatocyte mitochondria from oxidative stress

Compound: COC1=C(OC)C(=O)C(C/C=C(\C)CC/C=C(\C)CC/C=C(\C)CC/C=C(\C)CC/C=C(\C)CC/C=C(\C)CC/C=C(\C)CC/C=C(\C)CC/C=C(\C)CCC=C(C)C)=C(C)C1=O [Coenzyme Q10, coenzyme Q10]
- litter size ([6]; 52-week-old mice, versus control groups without coenzyme Q10): significantly larger litter sizes
- number of ovulated eggs after stimulation ([6]; aged female mice): significantly increases the number of ovulated eggs
- safely tolerable dose (in vivo): up to 1200 mg per day

Compound: Oc1ccc(C=Cc2cc(O)cc(O)c2)cc1 [Resveratrol, resveratrol]
- adverse effects caused by methylglyoxal (inhibition of oocyte maturation, disruption of spindle assembly) [7]: can alleviate the adverse effects caused by methylglyoxal
- excessive ROS production, aberrant mitochondrial distribution, high level lipid peroxidation ([7]; methylglyoxal-induced cytotoxic changes): can block these cytotoxic changes
- DNA double strands breaks ([7]; methylglyoxal-treated oocytes): decreased

Compound: Nc1nc2ncc(CNc3ccc(C(=O)N[C@@H](CCC(=O)O)C(=O)O)cc3)nc2c(=O)[nH]1 [Folic Acid, folic acid]
- rate of neural-tube defects [8]: significant reduction in the rate of neural-tube defects
